Measured values: ChEMBL document CHEMBL4483862, “Open-source discovery of chemical leads for next-generation chemoprotective antimalarials” (2018)

System: Plasmodium berghei
Experiment: Luciferase/luciferin-expressing antifolate-resistant parasites were used to infect a culture of HepG2 cells that were pre-incubated with compounds. Infected hepatocytes emit light due to the luciferase reaction. Assay results are presented as the percent inhibition of light emission compared to control. […]
Assay type: functional
Details: sporozoite; for IC90: read-out: LUCIFERASE INFECTION ASSAY - IC90

Compound | IC90 | also measured
COCCCNc1nnc(Cc2ccc(Cl)cc2)c(O)n1 | > 10.7 µM | IC50 (HEPG2TOX_HILL_SLOPE 2.55, HEPG2TOX_R_SQUARED 0.699, PBLUC_HILL_SLOPE 0.604, PBLUC_R_SQUARED 0.236, read-out: LUCIFERASE INFECTION ASSAY - IC50): 6.39 µM
COc1ccc(CCN=C(S)NC2CCN(Cc3ccccc3)CC2)cc1 | > 10 µM | IC50 (HEPG2TOX_HILL_SLOPE 2.55, HEPG2TOX_R_SQUARED 0.6, read-out: LUCIFERASE INFECTION ASSAY - IC50): > 10 µM
Cc1ccc(C(C)C)c(OCc2ccc(C(=O)N/N=C/c3cccc(O)c3O)cc2)c1 | > 10 µM | IC50 (HEPG2TOX_HILL_SLOPE 2.51, HEPG2TOX_R_SQUARED 0.938, PBLUC_HILL_SLOPE 16, PBLUC_R_SQUARED 0.0407, read-out: LUCIFERASE INFECTION ASSAY - IC50): 9.9 µM
NC(COCc1ccccc1)c1csc(NC(=O)Nc2cccc(C(F)(F)F)c2)n1 (configuration not stated) | > 7.56 µM | IC50 (HEPG2TOX_HILL_SLOPE 2.5, HEPG2TOX_R_SQUARED 0.677, PBLUC_HILL_SLOPE 2.37, PBLUC_R_SQUARED 0.435, read-out: LUCIFERASE INFECTION ASSAY - IC50): 5.16 µM
COCCNc1nc(Nc2ccc(C)cc2C)c2sccc2n1 | > 10 µM | IC50 (HEPG2TOX_HILL_SLOPE 2.54, HEPG2TOX_R_SQUARED 0.987, PBLUC_HILL_SLOPE 3.36, PBLUC_R_SQUARED 0.0445, read-out: LUCIFERASE INFECTION ASSAY - IC50): > 10 µM
Cc1nn(C(C)(C)C)c2c1C(c1ccc3c(c1)OCO3)C1C(=O)CC(C)(C)CC1=N2 (configuration not stated) | > 10 µM | IC50 (HEPG2TOX_HILL_SLOPE 2.55, HEPG2TOX_R_SQUARED 0.436, read-out: LUCIFERASE INFECTION ASSAY - IC50): > 10 µM
O=C1C=C(NCc2ccccc2)CC(c2ccc(Cl)cc2)C1 (configuration not stated) | > 10.6 µM | IC50 (HEPG2TOX_HILL_SLOPE 2.56, HEPG2TOX_R_SQUARED 0.714, PBLUC_HILL_SLOPE 1.97, PBLUC_R_SQUARED 0.212, read-out: LUCIFERASE INFECTION ASSAY - IC50): 6.81 µM
CC(Oc1ccc(Oc2ccc(C(F)(F)F)cc2)cc1)C(=O)N1CCN(c2ccc(C(F)(F)F)cn2)CC1 (configuration not stated) | > 6.12 µM | IC50 (HEPG2TOX_HILL_SLOPE 2.54, HEPG2TOX_R_SQUARED 0.907, PBLUC_HILL_SLOPE 2.4, PBLUC_R_SQUARED 0.3, read-out: LUCIFERASE INFECTION ASSAY - IC50): 3 µM
Cc1ccc(-c2noc(CCCN3CCN(c4cnn(-c5ccccc5)c(=O)c4Cl)CC3)n2)cc1 | 5.31 µM | IC50 (HEPG2TOX_HILL_SLOPE 2.5, HEPG2TOX_R_SQUARED 0.985, PBLUC_HILL_SLOPE 2.59, PBLUC_R_SQUARED 0.752, read-out: LUCIFERASE INFECTION ASSAY - IC50): 2.28 µM
CCNC(=O)NC(=O)CNC(c1ccc(CC)cc1)c1cccc(F)c1 (configuration not stated) | > 10 µM | IC50 (HEPG2TOX_HILL_SLOPE 2.54, HEPG2TOX_R_SQUARED 0.274, read-out: LUCIFERASE INFECTION ASSAY - IC50): > 10 µM
COc1cc(OC)cc(-c2cnc3cnc(-c4cccc(C)c4C)cn23)c1 | 8.63 µM | IC50 (HEPG2TOX_HILL_SLOPE 2.52, HEPG2TOX_R_SQUARED 0.881, PBLUC_HILL_SLOPE 5.04, PBLUC_R_SQUARED 0.463, read-out: LUCIFERASE INFECTION ASSAY - IC50): 5.58 µM
CCN1C(=O)N(CCCc2cccnc2)C(=O)C12CCN(Cc1cccc(C(F)(F)F)c1)CC2 | > 6.95 µM | IC50 (HEPG2TOX_HILL_SLOPE 2.53, HEPG2TOX_R_SQUARED 0.847, PBLUC_HILL_SLOPE 12.5, PBLUC_R_SQUARED 0.0898, read-out: LUCIFERASE INFECTION ASSAY - IC50): 6.59 µM
CC(C(=O)NC(N)=O)N(C)Cc1ccc(OCc2ccc(Cl)cc2)cc1 (configuration not stated) | 9.89 µM | IC50 (HEPG2TOX_HILL_SLOPE 2.51, HEPG2TOX_R_SQUARED 0.952, PBLUC_HILL_SLOPE 1.26, PBLUC_R_SQUARED 0.93, read-out: LUCIFERASE INFECTION ASSAY - IC50): 1.73 µM
Cc1ccc(F)cc1NS(=O)(=O)c1ccc(-n2ncc(Cl)c(Cl)c2=O)cc1 | 6.47 µM | IC50 (HEPG2TOX_HILL_SLOPE 2.56, 7.18, HEPG2TOX_R_SQUARED 0.970, 0.512, PBLUC_HILL_SLOPE 2.23, 0.224, PBLUC_R_SQUARED 0.767, 0.129, read-out: LUCIFERASE INFECTION ASSAY - IC50): 2.08 µM
COc1ccc(NC(=O)c2cc(N(C)Cc3ccccc3)ncn2)cn1 | 7.26 µM | IC50 (HEPG2TOX_HILL_SLOPE 2.56, HEPG2TOX_R_SQUARED 0.944, PBLUC_HILL_SLOPE 1.8, PBLUC_R_SQUARED 0.498, read-out: LUCIFERASE INFECTION ASSAY - IC50): 2.14 µM
CCn1nc(C(=O)N2CCN(c3ccccc3)CC2)c2c1CCN(Cc1cc(C)c(OC)cc1C)C2 | > 6.77 µM | IC50 (HEPG2TOX_HILL_SLOPE 2.53, HEPG2TOX_R_SQUARED 0.945, PBLUC_HILL_SLOPE 5.03, PBLUC_R_SQUARED 0.659, read-out: LUCIFERASE INFECTION ASSAY - IC50): 4.44 µM

Compound | IC90 | also measured
Cn1c(-c2cccnc2)cc2cnc(Nc3ccc(OC(F)(F)F)cc3)cc21 | 9.47 µM | IC50 (HEPG2TOX_HILL_SLOPE 2.53, HEPG2TOX_R_SQUARED 0.903, PBLUC_HILL_SLOPE 4.19, PBLUC_R_SQUARED 0.443, read-out: LUCIFERASE INFECTION ASSAY - IC50): 5.61 µM
Cc1cccc(C(=O)Nc2nc3ccccn3c2C(=O)NC(C)C)c1 | > 9.81 µM | IC50 (HEPG2TOX_HILL_SLOPE 2.5, HEPG2TOX_R_SQUARED 0.601, PBLUC_HILL_SLOPE 2.39, PBLUC_R_SQUARED 0.0938, read-out: LUCIFERASE INFECTION ASSAY - IC50): 6.28 µM
O=C(Nc1nc2ccc(Oc3ccccc3)cc2s1)c1ccoc1 | > 10 µM | IC50 (HEPG2TOX_HILL_SLOPE 2.54, HEPG2TOX_R_SQUARED 0.824, PBLUC_HILL_SLOPE 3.93, PBLUC_R_SQUARED 0.329, read-out: LUCIFERASE INFECTION ASSAY - IC50): 7.66 µM
CC(Sc1nnc(/C=C/c2ccc(F)cc2)[nH]1)C(=O)N(Cc1ccccc1)Cc1ccccc1 (configuration not stated) | 3.74 µM | IC50 (HEPG2TOX_HILL_SLOPE 2.54, HEPG2TOX_R_SQUARED 0.989, PBLUC_HILL_SLOPE 16.4, PBLUC_R_SQUARED 0.588, read-out: LUCIFERASE INFECTION ASSAY - IC50): 3.27 µM
Clc1ccc2c(NCc3ccc(CN4CCOCC4)cc3)ccnc2c1 | 4.14 µM | IC50 (HEPG2TOX_HILL_SLOPE 2.51, 1.28, HEPG2TOX_R_SQUARED 0.778, 0.972, PBLUC_HILL_SLOPE 2.92, 9.52, PBLUC_R_SQUARED 0.401, 0.159, read-out: LUCIFERASE INFECTION ASSAY - IC50): 4.34 µM
Cn1cc(C(=O)Nc2ccc(-c3nc4ccccc4[nH]3)cc2)c(-c2ccc3c(c2)OCCCO3)n1 | 4.31 µM | IC50 (HEPG2TOX_HILL_SLOPE 2.56, HEPG2TOX_R_SQUARED 0.953, PBLUC_HILL_SLOPE 7.83, PBLUC_R_SQUARED 0.745, read-out: LUCIFERASE INFECTION ASSAY - IC50): 3.25 µM
O=C(COc1ccccc1-c1ccccc1)Nc1nc(-c2ccccn2)cs1 | 9.35 µM | IC50 (HEPG2TOX_HILL_SLOPE 2.53, HEPG2TOX_R_SQUARED 0.481, PBLUC_HILL_SLOPE 10.3, PBLUC_R_SQUARED 0.199, read-out: LUCIFERASE INFECTION ASSAY - IC50): 7.56 µM
CC(=O)Nc1cccc(/C(C)=N/n2c(-c3cccc(Br)c3)cs/c2=N\c2ccc(F)cc2)c1 | 1.69 µM | IC50 (HEPG2TOX_HILL_SLOPE 2.5, HEPG2TOX_R_SQUARED 0.833, PBLUC_HILL_SLOPE 128, PBLUC_R_SQUARED 0.253, read-out: LUCIFERASE INFECTION ASSAY - IC50): 1.66 µM
COc1ccc(NCC2(c3ccnc(-c4ccccc4Cl)c3)CC2)cn1 | > 10 µM | IC50 (HEPG2TOX_HILL_SLOPE 2.53, HEPG2TOX_R_SQUARED 0.891, PBLUC_HILL_SLOPE 5.38, PBLUC_R_SQUARED 0.384, read-out: LUCIFERASE INFECTION ASSAY - IC50): 7.39 µM
O=C1NCC(COC(=O)c2ccc3c4c(cccc24)CC3)O1 (configuration not stated) | 3.64 µM | IC50 (HEPG2TOX_HILL_SLOPE 2.53, HEPG2TOX_R_SQUARED 0.949, PBLUC_HILL_SLOPE 23.6, PBLUC_R_SQUARED 0.351, read-out: LUCIFERASE INFECTION ASSAY - IC50): 3.32 µM
O=C(NNc1ccc(I)cc1)c1cc(Cl)cc(Cl)c1 | 2.86 µM | IC50 (HEPG2TOX_HILL_SLOPE 2.56, HEPG2TOX_R_SQUARED 0.673, PBLUC_HILL_SLOPE 20.4, PBLUC_R_SQUARED 0.213, read-out: LUCIFERASE INFECTION ASSAY - IC50): 2.56 µM
N#CC(/N=C\c1ccc(Cl)cc1)=C(\C#N)NC(=O)Nc1ccc(OC(F)(F)F)cc1 | 2.75 µM | IC50 (HEPG2TOX_HILL_SLOPE 2.54, HEPG2TOX_R_SQUARED 0.983, PBLUC_HILL_SLOPE 13.2, PBLUC_R_SQUARED 0.605, read-out: LUCIFERASE INFECTION ASSAY - IC50): 2.33 µM
O=C(Nc1ccccc1)Nc1nnc(C(F)(F)F)s1 | 1.07 µM | IC50 (HEPG2TOX_HILL_SLOPE 2.53, HEPG2TOX_R_SQUARED 0.953, PBLUC_HILL_SLOPE 4.44, PBLUC_R_SQUARED 0.774, read-out: LUCIFERASE INFECTION ASSAY - IC50): 0.65 µM
CCOC(=O)C1=C(C)NC(C)=C(C(=O)OCC)C1C(=O)OCC(=O)NC12CC3CC(CC(C3)C1)C2 | > 10 µM | IC50 (HEPG2TOX_HILL_SLOPE 2.54, HEPG2TOX_R_SQUARED 0.735, read-out: LUCIFERASE INFECTION ASSAY - IC50): > 10 µM
COc1ccc(-c2cc(=O)n3nc(C)c(-c4ccc(F)cc4)c3[nH]2)cc1 | 3.24 µM | IC50 (HEPG2TOX_HILL_SLOPE 2.56, HEPG2TOX_R_SQUARED 0.662, PBLUC_HILL_SLOPE 58.3, PBLUC_R_SQUARED 0.0989, read-out: LUCIFERASE INFECTION ASSAY - IC50): 3.12 µM
